Measured values reported in patent publication US10640507B2, “PBD antibacterial agents” (KING'S COLLEGE LONDON, priority 2015, dated 2020).
≈ marks a conversion by molar mass, not a printed value. Like-named read-outs stand apart in the source and are kept apart here.

How the values were obtained:
[1] = tested on: PA01; experiment: Effect of efflux pump inhibitors (EPIs) on MIC; type: cell-based, P. aeruginosa
Experimental: (§1) 1. Grow up cultures of bacterial strains to be tested overnight.
(§2) 2. Dilute down overnight cultures to concentration of 1×10^6 bacteria/ml (OD0.01) in Tryptic soy broth (TSB).
(§3) 3. Add 100 μl of TSB media to column 2-column 12 in 96 well plate (keeping column 1 clear).
(§4) 4. Make up compound to a concentration of 64 μg/ml in water.
(§5) 5. Add 100 μl of antibiotic solution to the 1st and 2nd columns.
(§6) 6. Using a multichannel pipette take 100 μl from the 2nd column wells and pipette into 3rd column wells and repeat down the 96 well plate (remember to include controls i.e. uninfected media and media with no antibiotic).
(§7) 7. To each well (except uninfected control row H) add 50 μl/well of EPI at 4× final concentration in TSB.
(§8) 9. In wells used to test the effect of the EPI carbonyl cyanide 3-chlorophenylhydrazone (CCCP) the CCCP is added at 10 μg/ml final concentration.
(§9) 10. In wells used to test the effect of the EPI phenylalanine-arginine β-naphthylamide (PABN) the PABN is added at 25 μg/ml final concentration.
(§10) 11. In wells used to test the effect of the PABN+Mg, the PABN is added at 25 μg/ml final concentration, with 1 mM MgSO4 in TSB.
(§11) 12. Wrap plate with parafilm to prevent evaporation.
(§12) 13. Leave at desired temperature (37° C. unless specified elsewhere) for 20 hours.
(§13) 14. Next day check plates for growth and measure optical density (i.e. absorbance) at a wavelength of 600 nm (OD600).
(§14) Compound KMR-14-33 was tested against a range of bacterial species using the above protocol. Compound PP-A148 was also tested against a more limited range of bacterial species using the above protocol. For KMR-14-33 measurements were carried out for the compound alone, for the compound plus CCCP, for the compound plus PABN and for the compound plus PABN and plus Mg. For PP-A148 measurements were carried out for the compound alone and for the compound plus PABN.

[2] = tested on: NCTC 13437; experiment: Effect of efflux pump inhibitors (EPIs) on MIC; type: cell-based, P. aeruginosa
Experimental: as §1, §2, §3, §4, §5, §6, §7, §8, §9, §10, §11, §12, §13, §14

[3] = tested on: A. baumannii - NCTC13424; type: cell-based; conditions: drug at 4×MIC
Experimental: (§15) 1. Grow bacteria overnight.
(§16) 2. Subculture into an autoclaved conical flask containing 10 ml of TSB to an OD of 0.01 (˜1×10^7 Cfu/ml for KP-M6).
(§17) 4. Take aliquots (100 μl) at timepoints (0, 1, 2, 4, 6, 24 hours) and carry out a serial dilution in PBS (to remove drug and to dilute bacteria to countable numbers).
(§18) 5. Use the serial dilution to perform a Miles Misra—i.e. Add 3×10 μl spots of each dilution onto an agar plate. Incubate overnight and count colonies on spots in the morning.
(§19) 6. Control: Subculture bacteria alongside samples but with no antibiotic added. Take aliquots from this at every time point (0, 1, 2, 4, 6, 24 hours) and perform Miles Misra on these too (as detailed in points 4 and 5 above).
(§20) 7. After the first experiment, if the counts seen on Miles-Misra were zero, total viable counts were determined by spreading 200 μl in a streak down the centre of a TSB agar plate, waiting for the liquid to be absorbed and then spreading over the plate and checking for growth inhibition at the sight of the original streak.
(§21) 8. The compound is considered bactericidal if the inoculum was reduced >3 log10 CFU/ml and bacteriostatic if inoculum was reduced by 0-3 log10 CFU/ml.
(§22) Three measurements were taken for each compound at each time point. These measurements were averaged and the standard deviation was also calculated.

[4] = tested on: A. baumannii - AYE; type: cell-based; conditions: drug at 4×MIC
Experimental: as §15, §16, §17, §18, §19, §20, §21, §22

[5] = tested on: K. pneumonia - NCTC 13368; type: cell-based; conditions: drug at 4×MIC
Experimental: as §15, §16, §17, §18, §19, §20, §21, §22

[6] = tested on: K. pneumonia - NCTC 13438; type: cell-based; conditions: drug at 4×MIC
Experimental: as §15, §16, §17, §18, §19, §20, §21, §22

SMILES: COc1cc2c(cc1OCCCC(=O)Nc1cc(C(=O)Nc3ccc4oc(C(=O)N5CCSCC5)cc4c3)n(C)c1)N=C[C@@H]1CCCN1C2=O [PP-A148, (S)-4-(4-((7-methoxy-5-oxo-2,3,5,11a-tetrahydro-1H-benzo-[e]pyrrolo[1,2-a][1,4]diazepin-8-yl)oxy)butanamido)-1-methyl-N-(2-(thiomorpholine-4-carbonyl)benzofuran-5-yl)-1H-pyrrole-2-carboxamide]
- +PABN MIC ([1]; PABN at 25 μg/ml): 4 to 8 µg/mL
- MIC ([1]; Pseudomonas aeruginosa, no EPI, read-out: Control with no EPI MIC): 128 µg/mL (≈ 183 µM)
- +PABN MIC ([2]; NCTC 13437, PABN at 25 μg/ml): 0.25 to 2 µg/mL
- MIC ([2]; Pseudomonas aeruginosa, NCTC13437, read-out: Control with no EPI MIC): 16 µg/mL (≈ 22.9 µM)

SMILES: O=C(O)c1cn(C2CC2)c2cc(N3CCNCC3)c(F)cc2c1=O [CIP, ciprofloxacin, reference compound]
- Average (CFU/mL) ([3]; time-point 1 hours): 2.57e+06 CFU/mL
- n = 1 (CFU/mL) ([3]; time-point 1 hours): 2.5e+06 CFU/mL
- n = 2 (CFU/ml) ([3]; time-point 1 hours): 2.2e+06 CFU/ml
- n = 3 (CFU/mL) ([3]; time-point 1 hours): 3e+06 CFU/mL
- Average (CFU/mL) ([3]; time-point 2 hours): 42000 CFU/mL
- n = 1 (CFU/mL) ([3]; time-point 2 hours): 80000 CFU/mL
- n = 2 (CFU/ml) ([3]; time-point 2 hours): 21000 CFU/ml
- n = 3 (CFU/mL) ([3]; time-point 2 hours): 25000 CFU/mL
- Average (CFU/mL) ([3]; time-point 4 hours): 7330 CFU/mL
- n = 1 (CFU/mL) ([3]; time-point 4 hours): 12000 CFU/mL
- n = 2 (CFU/ml) ([3]; time-point 4 hours): 1000 CFU/ml
- n = 3 (CFU/mL) ([3]; time-point 4 hours): 9000 CFU/mL
- Average (CFU/mL) ([3]; time-point 6 hours): 11200 CFU/mL
- n = 1 (CFU/mL) ([3]; time-point 6 hours): 10000 CFU/mL
- n = 2 (CFU/ml) ([3]; time-point 6 hours): 14300 CFU/ml
- n = 3 (CFU/mL) ([3]; time-point 6 hours): 9200 CFU/mL
- n = 1 (CFU/mL) ([3]; time-point 24 hours): 3.6e+08 CFU/mL
- n = 2 (CFU/ml) ([3]; time-point 24 hours): 1.9e+09 CFU/ml
- n = 3 (CFU/mL) ([3]; time-point 24 hours): 2.75e+09 CFU/mL
- Average (CFU/ml) ([4]; time-point 1 hours): 2e+06 CFU/ml
- n = 1 (CFU/ml) ([4]; time-point 1 hours): 2.1e+06 CFU/ml
- n = 2 (CFU/ml) ([4]; time-point 1 hours): 1.9e+06 CFU/ml
- Average (CFU/ml) ([4]; time-point 2 hours): 900000 CFU/ml
- n = 1 (CFU/ml) ([4]; time-point 2 hours): 1.2e+06 CFU/ml
- n = 2 (CFU/ml) ([4]; time-point 2 hours): 600000 CFU/ml
- Average (CFU/ml) ([4]; time-point 4 hours): 750000 CFU/ml
- n = 1 (CFU/ml) ([4]; time-point 4 hours): 800000 CFU/ml
- n = 2 (CFU/ml) ([4]; time-point 4 hours): 700000 CFU/ml
- Average (CFU/ml) ([4]; time-point 6 hours): 2.1e+06 CFU/ml
- n = 1 (CFU/ml) ([4]; time-point 6 hours): 2e+06 CFU/ml
- n = 2 (CFU/ml) ([4]; time-point 6 hours): 2.2e+06 CFU/ml
- n = 1 (CFU/ml) ([4]; time-point 24 hours): 7e+08 CFU/ml
- n = 2 (CFU/ml) ([4]; time-point 24 hours): 1.4e+08 CFU/ml
- Average (CFU/ml) ([5]; time-point 1 hours): 2.38e+06 CFU/ml
- n = 2 (CFU/ml) ([5]; time-point 1 hours): 110000 CFU/ml
- n = 3 (CFU/ml) ([5]; time-point 1 hours): 28000 CFU/ml
- viable count ([5]; time-point 1 hours): 7e+06 CFU/mL
- Average (CFU/ml) ([5]; time-point 2 hours): 118000 CFU/ml
- n = 2 (CFU/ml) ([5]; time-point 2 hours): 650 CFU/ml
- n = 3 (CFU/ml) ([5]; time-point 2 hours): 2500 CFU/ml
- viable count ([5]; time-point 2 hours): 350000 CFU/mL
- Average (CFU/ml) ([5]; time-point 4 hours): 75.3 CFU/ml
- n = 2 (CFU/ml) ([5]; time-point 4 hours): 55 CFU/ml
- n = 3 (CFU/ml) ([5]; time-point 4 hours): 170 CFU/ml
- viable count ([5]; time-point 4 hours): 0 CFU/mL
- Average (CFU/ml) ([5]; time-point 6 hours): 65.3 CFU/ml
- n = 2 (CFU/ml) ([5]; time-point 6 hours): 80 CFU/ml
- n = 3 (CFU/ml) ([5]; time-point 6 hours): 115 CFU/ml
- viable count ([5]; time-point 6 hours): 0 CFU/mL
- Average (CFU/ml) ([5]; time-point 24 hours): 0 CFU/ml
- n = 2 (CFU/ml) ([5]; time-point 24 hours): 0 CFU/ml
- n = 3 (CFU/ml) ([5]; time-point 24 hours): 0 CFU/ml
- viable count ([5]; time-point 24 hours): 0 CFU/mL
- n = 1 (CFU/ml) ([6]; time-point 1 hours): 1e+07 CFU/ml
- n = 2 (CFU/ml) ([6]; time-point 1 hours): 9e+06 CFU/ml
- n = 1 (CFU/ml) ([6]; time-point 2 hours): 3.8e+07 CFU/ml
- n = 2 (CFU/ml) ([6]; time-point 2 hours): 3.7e+07 CFU/ml
- Average (Log CFU/ml) ([6]; time-point 4 hours): 1.17E+09 Log CFU/ml
- n = 1 (CFU/ml) ([6]; time-point 4 hours): 1.5e+09 CFU/ml
- n = 2 (CFU/ml) ([6]; time-point 4 hours): 1e+09 CFU/ml
- Average (Log CFU/ml) ([6]; time-point 6 hours): 3.07E+09 Log CFU/ml
- n = 1 (CFU/ml) ([6]; time-point 6 hours): 3.9e+09 CFU/ml
- n = 2 (CFU/ml) ([6]; time-point 6 hours): 2.5e+09 CFU/ml
- Average (Log CFU/ml) ([6]; time-point 24 hours): 6.23E+09 Log CFU/ml
- n = 1 (CFU/ml) ([6]; time-point 24 hours): 6e+09 CFU/ml
- n = 2 (CFU/ml) ([6]; time-point 24 hours): 6.7e+09 CFU/ml
